Measured values: patent US9012420B2, “Aptamer for chymase, and use thereof” (Ribomic Inc., priority 2009, dated 2015)
Oligonucleotides are written 5' to 3', each unit as a sugar letter and its base; * is a phosphorothioate linkage, no mark a phosphodiester; rarer units and linkages stand in square brackets, end groups in braces. Plain capitals give the bases only. r = 2'-OH (RNA); f = 2'-fluoro

T1: LTBP-1 degradation by chymase (Homo sapiens, UniProt P23946)
T1 sequence (P23946 22-247): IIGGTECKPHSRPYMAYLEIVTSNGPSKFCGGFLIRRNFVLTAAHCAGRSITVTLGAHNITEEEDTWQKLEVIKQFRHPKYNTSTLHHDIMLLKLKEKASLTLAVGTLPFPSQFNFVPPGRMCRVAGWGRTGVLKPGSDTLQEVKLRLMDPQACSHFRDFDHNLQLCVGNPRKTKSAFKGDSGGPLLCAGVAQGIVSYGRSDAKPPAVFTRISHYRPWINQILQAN

T2: chymase (Homo sapiens, UniProt P23946)
T2 sequence (P23946 22-247): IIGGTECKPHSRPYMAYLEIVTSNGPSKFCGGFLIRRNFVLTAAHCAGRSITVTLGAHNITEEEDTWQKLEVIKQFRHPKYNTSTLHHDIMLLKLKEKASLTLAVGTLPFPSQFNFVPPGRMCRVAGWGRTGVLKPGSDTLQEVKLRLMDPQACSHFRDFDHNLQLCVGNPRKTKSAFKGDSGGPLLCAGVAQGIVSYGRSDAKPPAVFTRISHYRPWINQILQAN


What was measured:
[1] = biological target: T1, LTBP-1 degradation by chymase; assay: LTBP-1 degradation inhibitory activity, NHLF culture supernatant, Western blotting; type: biochemical; set-up: key: +: detection of a band with the same level of density as an LTBP-1 band in the control; −: absence of detection of LTBP-1 band as clear as that of the negative control; settings: final nucleic acid concentration 5 μM, chymase 10 ng/mL (0.33 nM), 37° C. 1 hr; visual determination of LTBP-1 band
Procedure: A third method of evaluation employs a native substrate contained in a cell culture supernatant. Here, degradation of chymase substrate LTBP-1 is detected by Western blotting. NHLF cells (manufactured by Cambrex Bio Science) under freezing are rapidly thawed in a 37° C. water bath, and then suspended in a medium (10% FBS/F-12). After centrifugation at 1200 rpm for 5 minutes, the resulting supernatant is removed, and the cells are re-suspended in the medium. Total volume of 10 mL medium is added to the centrifuged cells, and the cell suspension is transferred to a cell culture dish and cultured at 37° C. in the presence of 5% CO2. The cells are observed morphology and proliferation status under a microscope. When the cells become confluent, the medium is replaced with a serum-free medium (0.2% BSA/F-12). Two days after replacement of the medium, the culture supernatant is collected, dispensed, and stored under freezing at −30° C.
After 40 μL of the NHLF culture supernatant, freshly thawed before use, is dispensed to a tube, 5 μL of the nucleic acid solution diluted with solution C is added thereof. For positive control, chymostatin is diluted with solution C, and this dilution is added in the same manner. For negative control, solution C alone is added. Next, 5 μL of a 100 ng/mL dilution of chymase in solution E (solution C+0.1% BSA, 0.05% sodium azide) is added. For control, a chymase-free tube is prepared. After stirring, the sample is incubated at 37° C. for 1 hour, and mixed with an equal volume of lysis buffer for electrophoresis to terminate the reaction. LTBP-1 in the sample is detected by the procedure of Western blotting described below.
The sample mixed in the lysis buffer is boiled for 3 minutes, and 10 μL of the sample is subjected to electrophoresis on 5-20% acrylamide gel. After completion of the electrophoresis, the sample is transferred onto a nitrocellulose filter, after which the filter is blocked with 5% skimmed milk, 50 mM Tris-HCl (pH 8.0), and 0.05% sodium azide. The filter is reacted with a 2 μg/mL dilution of anti-LTBP-1 monoclonal antibody in 2% BSA, PBS, and 0.05% sodium azide at room temperature overnight. […]
As determined according to LTBP-1 band density and position (molecular weight), the band from the chymase-free well serves for positive control (+), and the band from the negative control well serves for negative control (−). […]
Chymase is deeply involved in the activation of TGF-β, which is one of the important factors causing fibrosis. […] Whether the nucleic acid of the present invention has an inhibitory activity against LTBP-1 degradation by chymase was assessed by the method shown below. […]

chymase = biological target: T2, chymase; assay: Surface plasmon resonance (Biacore T100), aptamer immobilized on SA chip, chymase injected as analyte; type: binding; set-up: key: ++: a sequence that binds to chymase significantly more strongly than the negative control 40N; +: a sequence that binds to chymase equivalently compared with the negative control 40N; settings: Table 1; about 1000 RU nucleic acid immobilized, chymase 0.2 μM analyte, running buffer solution A; compared with 40N
Method in brief: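 Aptamer captured on streptavidin SA chip via 5′-biotin 16-nt poly dT (~1500 RU), and 20 μL of 0.2 μM chymase injected as analyte. Running buffer Solution A for SEQ ID NO: 4-20 and 22-34, Solution C for SEQ ID NO: 38-48. Random 30- or 40-nt RNA served as negative control.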

| Molecule | inhibitory activity on LTBP-1 degradation [1] | Binding activity as determined using Biacore (chymase) |
| --- | --- | --- |
| 56 (GGGUUAGAUAGAGUUAAAAACCC; 2'-fluoro at CU, RNA at AG, backbone not given here) [compound 56] | + |  |
| 58 (GGGUUGAAGAUAUUAAAGAACCC; 2'-fluoro at CU, RNA at AG, backbone not given here) [compound 58] | − |  |
| CC(C)C[C@H](NC(=O)[C@@H](NC(=O)N[C@@H](Cc1ccccc1)C(=O)O)[C@@H]1CCN=C(N)N1)C(=O)N[C@H](C=O)Cc1ccccc1 [chymostatin, reference compound] | + |  |
| GGGU(F)U(F)GAAGAU(F)AU(F)U(F)AAAGAAC(F)C(F)C(F) (GGGUUGAAGAUAUUAAAGAACCC; 2'-fluoro at CU, RNA at AG, backbone not given here) [SEQ ID NO: 58] | − |  |
| 4 (nucleic acid, aptamer) rGrGrGrAfCrGrGfUrArGrGrArAfUfUfCrGfUfCfCrAfUfUfCfUrAfCrArGrAfUrArGrArGrAfUrArArArGfUrArGrArAfUfUfUrArAfCrArArArAfCrAfUrArGrArArGrArGfCrGrGfCfCrGfC |  | ++ |
| 13 (nucleic acid, aptamer) rGrGrGrAfCrGrGfUrArGrGrArAfUfUfCfCrGfCrArAfCfCrAfUfCfCfCrGfUrArAfCfUrAfUrGrGfUfUrArGrAfUrArGrArGfUfUrArArArArAfCfCrAfUrArGrArArGrArGfCrGrGfCfCrGfC |  | ++ |
| 14 (nucleic acid, aptamer) rGrGrGrAfCrGrGfUrArGrGrArAfUfUfCfUfCrGfUfUfCfCfUrGrAfCrArGfCrAfUfUfUrGrArGrAfUrArGrAfUfUfUrArArAfCrArArAfCrGfCrAfCrAfUrArGrArArGrArGfCrGrGfCfCrGfC |  | ++ |
